This is an account of results in patent US20240150339A1, “Compounds and Their Use as PDE4 Activators” (Mironid Limited, priority 2021, published 2024).

The structures appear in SMILES notation.

One assay addresses T1, PDE4C3 (Homo sapiens, UniProt Q08493).
T1 construct: Using Full-Length Human PDE4 Isoforms: Long Forms PDE4D5, PDE4C3, PDE4B1 and Short Form PDE4B2; made in house; host or cells: HEK 293 transfected with pcDNA3.1 or pDEST PDE4 expression vector; cytosol fraction of the lysate by analogy to PDE4D5
Briefly: PDE assay, activation of full-length human PDE4C3 long form ([3H]cAMP radio-assay). It is filed as biochemical. The following applies: 30 μM test compound; mean % increase in counts over basal activity. The text has this:
Experiment 1: Measurement of Modulation of Enzyme Activity by PDE4 Long Form Activators of the Present Invention Using Full-Length Human PDE4 Isoforms: Long Forms PDE4D5, PDE4C3, PDE4B1 and Short Form PDE4B2
(Marchmont, R. J. and Houslay, M. D. Biochem. J. 187: 381-92, 1980)
For transient transfection of exogenous PDE4 long isoforms, HEK 293 cells were transfected with pcDNA3.1 or pDEST™ PDE4 expression vectors using Lipofectamine LTX/Plus reagent (Invitrogen) as outlined by the manufacturer. […]
HEK-PDE4D5 cells were seeded out in 100 mm plates and incubated at 37° C. in an atmosphere of 5% CO2, 95% air. Cell lysates were prepared using KHEM buffer [50 mM KCl, 10 mM EGTA, 50 mM HEPES (pH 7.2), 1.92 mM MgCl2].
To prepare the cell lysates, the 100 mm plates containing the cells were placed on ice and washed with ice-cold PBS (phosphate buffered saline, pH 7.4). KHEM buffer (500 μl) was added to the cells. Cells were then scraped off the plate and triturated using a needle (BD Microlance™ 0.8, 40 mm). The lysed cells were then centrifuged at 2000 rpm for 10 minutes to remove cell debris and the supernatant (cell lysate containing recombinant PDE4D5) was transferred to a fresh tube and kept on ice.
The cell lysate containing recombinant PDE4D5 was transferred into a centrifuge tube and placed into an ultracentrifuge (BECKMAN COULTER) and spun at high speed (100,000 g) for 30 minutes at 4° C. The cytosol fraction was then collected and its protein amount determined using a BCA protein assay.
PDE assays were performed in thin walled V-bottomed 96-well plates. The assays were performed at a final concentration of 10 mM Tris/5 mM MgCl2 μlus PDE4D5 cell lysate cytosol fraction, containing over-expressed PDE4D5, with and without test compound. The lysate/compound mix were incubated together for 15 min at room temperature on an orbital shaker prior to addition of [^3H] cAMP (final concentration 1 μM [^3H] cAMP; Perkin Elmer) to a final volume of 50 μl per reaction. The reactions were then incubated for 10 minutes at 30° C., terminated by heating for 2 min at 95° C. and allowed to cool. Snake venom (12.5 μl of 1 mg/ml; Crotalus atrox, Sigma) was then added and the plates were agitated and incubated for a further 15 minutes at 30° C. Dowex ion exchange resin (Sigma, chloride form, 200-400 mesh; 200 μl; prepared as a 1:1 Dowex: water stock, thoroughly re-suspended and diluted 2:1 with ethanol) was then added to each well and the plates incubated for 15 min at room temperature on an orbital shaker ensuring sufficient agitation for resin suspension (550 RPM). The reaction mixture was then transferred to a 96 well filter plate (Millipore; […] pore size) and filtered into a receiving 96-well plate to remove the dowex suspension. 30 μL of the filtered solution was then transferred to the wells of an Opti-plate (Perkin Elmer) 96 well assay plate and 120 μl of Microscint 40 scintillation fluid was added. The plate was then placed on an orbital shaker for 10 min at high speed (900 RPM) to mix the sample with scintillation fluid prior to quantitation using a plate based scintillation counter (Top-Count).
The % increase in counts in the presence of test compound at a particular concentration indicates the % increase in enzyme activity at that concentration.

Another assay deals with m-IMCD3 cells. Briefly: Inhibition of PGE2-stimulated in vitro cyst formation in 3D culture of m-IMCD3 cells. Format: cell-based, mouse. The following applies: Mus musculus, mIMCD3, 144 h; 10 μM test compound; mean cyst area (%) compared to 100% for (DMSO + PGE2) and 0% for DMSO control; 100 nM PGE2; 6 days; read-out: % Cyst area after incubation with 10 μM test compound. In short, it runs like this:
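Mouse m-IMCD3 cells grown in 3D collagen I/Matrigel gels. From 18-24 h after plating, compound (0.1% DMSO) plus 100 nM PGE2 were added and replenished at 2-3 days. After 6 days, imaging gave mean cyst area, scaled to 100% for DMSO+PGE2 and 0% for DMSO alone.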

T1 sequence (Q08493 1-680 isoform Q08493-3): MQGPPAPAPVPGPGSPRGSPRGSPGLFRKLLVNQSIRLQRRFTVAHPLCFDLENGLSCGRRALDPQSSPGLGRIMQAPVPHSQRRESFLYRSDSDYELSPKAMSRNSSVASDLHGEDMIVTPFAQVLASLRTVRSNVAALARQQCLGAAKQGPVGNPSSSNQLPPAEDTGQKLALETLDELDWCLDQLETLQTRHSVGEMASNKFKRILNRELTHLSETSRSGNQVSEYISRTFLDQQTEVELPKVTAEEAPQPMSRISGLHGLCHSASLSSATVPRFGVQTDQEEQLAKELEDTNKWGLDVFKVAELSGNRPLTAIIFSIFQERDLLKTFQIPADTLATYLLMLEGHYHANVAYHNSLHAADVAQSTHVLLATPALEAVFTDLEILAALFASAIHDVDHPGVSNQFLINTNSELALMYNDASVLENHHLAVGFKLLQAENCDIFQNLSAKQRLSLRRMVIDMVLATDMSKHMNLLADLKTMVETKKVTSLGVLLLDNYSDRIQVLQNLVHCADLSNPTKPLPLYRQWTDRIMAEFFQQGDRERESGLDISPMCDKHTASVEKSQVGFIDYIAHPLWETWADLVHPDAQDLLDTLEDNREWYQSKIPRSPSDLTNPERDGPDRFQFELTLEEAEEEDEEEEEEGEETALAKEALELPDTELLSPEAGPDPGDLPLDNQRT

In turn, `Cc1ncccc1-c1nc2ccc(C(=O)N[C@H]3CCOc4ccccc43)cc2s1` [Example 7, (S)-N-(chroman-4-yl)-2-(2-methylpyridin-3-yl)benzo[d]thiazole-6-carboxamide] had an activation at 30 µM on PDE4C3 of 105%. Besides, the activity at 10 µM in the assay with m-IMCD3 cells was -7%.
